How the values were obtained:
[1] = tested on: Hepa1c1c-7 cells stimulated by LPS; experiment: IL-6 and TNF-α gene expression (qPCR) in LPS-treated Hepa1c1c-7 cells; type: cell-based, mouse; conditions: compared with control group
Protocol: 1 μg of RNA extracted from Hepa1c1c-7 hepatocytes was used to synthesize cDNA by using a ReverTra Ace® qPCR RT kit (TOYOBO, Osaka, Japan). More particularly, to increase the efficiency of an RT-PCR reaction, the extracted RNA was treated at 65° C. for 5 minutes, and immediately stored on ice. Afterward, a total of 8 μL of a reaction mixture was prepared with 2 μL of a 4×DNA Master Mix containing a gDNA remover, 0.5 μg of RNA and distilled water (nuclease-free water), and reacted at 37° C. for 5 minutes. And then, a 5×RT Master mix was added to the reaction mixture, reacted at 37° C.-5 min, 50° C.-5 min and 98° C.-5 min to synthesize cDNA.
PCR was performed with the cDNA synthesized by the above-described method using a THUNDERBIRD SYBR qPCR Mix (TOYOBO, Osaka, Japan) and an iQ5 iCycler system (Bio-Rad, California, USA). More particularly, amplification was performed with initial denaturation at 95° C. for 4.5 minutes, and 40 cycles of additional denaturation at the same temperature for 10 seconds, annealing and cooling at 55 to 60° C. for 30 seconds, and elongation at 68° C. for 20 seconds. The expression level of each gene was normalized using GAPDH expression. Primers were designed using the Nucleotide BLAST Software of the National Center for Biotechnology Information (NCBI), and purchased from Bionics (Seoul, Korea).

[2] = tested on: Olfr544 KO mouse; experiment: Fatty liver inhibitory effect in high-fat diet Olfr544 KO mouse; type: in vivo
Protocol: Mice used in the example, which were an eight-week-old C57BL/6J model, were purchased from Samtako, and Olfr544 KO mice were manufactured by Macrogen based on the C57BL/6J model using a CRISPR/Cas9 system. All experiments performed in the example are compliant to a protocol approved by the Animal Experiment Ethics Committee at Korea University (Protocol No. KUIACUC-20170322-1). The mice were acclimated at 21 to 25° C. under a 50 to 60% relative humidity condition for 12 hours before being used in the experiments, and a total of 18 mice were treated with an AzA diluted with distilled water at 50 mg/kg of body weight and distilled water as a control through oral administration for 6 weeks. The mice used in the experiments were fed a high-fat diet containing 60% fat (D12492, Research Diets, Inc) to induce fatty liver, and then a body weight was measured every week. […] An oxygen consumption amount (VO2) and a carbon dioxide production amount (VCO2) were analyzed using an Oxylet Physiocage System (Panlab/Harvard apparatus, Cornella, Spain) and suiteMETABOLISM (V2.2.01, Panlab) software. A respiratory quotient (RQ) was calculated using the formula VCO2/VO2, and energy expenditure was analyzed using the formula EE=VO2×1.11×(3.815+1.232×RQ). The oxidation of a free fatty acid was calculated using the formula (1.6946×VO2)−(1.7012×VCO2). An AzA (100 mg/kg) was intraperitoneally administered, and then concentration of a glycerol, which is a body fat decomposition marker, was measured. […] To measure glucose resistance and insulin resistance, a glucose and insulin resistance test was performed under a condition, in which glucose ([…]) and insulin (0.35 unit/kg/bw) are administered to a mouse.

[3] = tested on: 3T3-L1 adipose cells; experiment: MTT cytotoxicity assay in 3T3-L1 adipose cells; type: cell-based, mouse; conditions: 0 to 500 μM AzA, compared with control group
Protocol: The cytotoxicity test for 3T3-L1 adipose cells was performed by a tetrazolium-based colorimetric (MTT) method. The MTT assay is a method for evaluating cytotoxicity by measuring absorbance at a suitable wavelength (usually at 500 to 600 nm) based on a metabolic process, in which a dehydrogenase in mitochondria of intact cells reduces a yellow water-soluble tetrazolium salt [3-(4,5-dimethylthiazol-2-yl)-2-5-diphenyltetrazolium bromide] (MTT) into a water-insoluble dark violet MTT formazan crystal.

[4] = tested on: Hepa1c1c-7 cells; experiment: MTT cytotoxicity assay in Hepa1c1c-7 cells; type: cell-based, mouse; conditions: 0 to 500 μM AzA, 24 hours, compared with control group
[5] = tested on: mouse primary hepatocytes; experiment: Fatty acid decomposition gene markers in mouse primary hepatocyte; type: cell-based
Protocol: To reconfirm the liver tissue lipolytic effect of an AzA, an additional experiment was performed using a mouse primary hepatocyte. […] Therefore, it was reconfirmed that an AzA stimulates fatty acid oxidation, thereby treating/preventing a fatty liver lesion.

[6] = tested on: Hepa1c1c-7 cells stimulated by LPS; experiment: GPCR 10-pathway reporter assay in LPS-induced Hepa1c1c-7 cells; type: cell-based, mouse; conditions: 100 ng/mL LPS 1 hour, then 50 μM AzA 6 hours
Protocol: Mouse hepatocytes, i.e., Hepa1c1c-7 cells were seeded on a 96 well-plate at 1×10^4 cells/well and cultured for 24 hours, and transfected with a construct including a transcription factor promoter and a luciferase for 8 hours. The experiment was performed on two groups, i.e., a group with inflammation in hepatocytes caused by LPS and a group not being treated with LPS. In the non-treated control, 50 μM of AzA was treated for 6 hours, and in the experimental group, inflammation was induced by treating 100 ng/mL of LPS, the inflammation-inducing material, for 1 hour, and then 50 μM of AzA was treated for 6 hours. As a result, downstream pathway, which was activated by an AzA, was confirmed. To confirm a mechanism of an anti-inflammatory effect of an AzA, 10 transcription factors for signal transduction of GPCR were analyzed. […] Based on the Olfr544-cAMP-CREB signal transduction process of an AzA, the change of a complicated downstream signal transduction pathway system in response to GPCR activation and inhibition was examined using 10 types of transcription factors through a GPCR 10-pathway reporter assay. A GPCR 10-signal transduction pathway measurement is a method for assessing a representative signal pathway of GPCR using a reporter gene assay method, and the change of a complicated downstream signal transduction pathway system in response to the activation and inhibition of GPCR can be assessed using 10 types of transcription factors. A GPCR Signaling 10-pathway Reporter Array (QIAGEN, Netherlands) used in this example includes a transcription factor inducing downstream signal transduction and a firefly luciferase construct in each experimental group, and is based on a principle, in which luciferase activity is measured by continuously expressing a Renilla luciferase construct. The 10 types of transcription factors are as follows: ATF2/ATF3/ATF4, CREB, ELK1/SRF, FOS/JUN, MEF2, GLI, FOXO, STAT3, NFAT, and NFκB. In this example, the luciferase activity was measured using a dual luciferase assay kit (Promega, USA) and Victor™ X2 (PerkinElmer, CA, USA).

[7] = Olfr544 KO mouse, HFD and AzA for 6 weeks

Structure (SMILES): O=C(O)CCCCCCCC(=O)O [AzA, nonanedioic acid]
- IL-6 gene expression [1]: significantly decreased
- TNF-α gene expression [1]: significantly decreased
- glucose resistance (glucose resistance test) ([2]; KO mouse): not observed
- insulin resistance (insulin resistance test) ([2]; KO mouse): not observed
- abdominal fat (microCT) ([2]; KO mouse, AzA 50 mg/kg/day): no such effects
- total fat amount (microCT) ([2]; KO mouse, AzA 50 mg/kg/day): no such effects
- blood glycerol concentration (body fat decomposition marker) ([2]; KO mouse, AzA 100 mg/kg intraperitoneally): no effect
- oxidation of free fatty acids (indirect calorimetric analysis) [2, 7]: these effects were not shown
- respiratory quotient (indirect calorimetric analysis) [2, 7]: these effects were not shown
- cytotoxicity (MTT assay) [3]: toxicity was not exhibited at every concentration
- cytotoxicity (MTT assay) [4]: toxicity was not exhibited at every concentration
- Acox1 gene marker [5]: significantly increases
- Cpt1a gene marker [5]: significantly increases
- Ppara gene marker [5]: significantly increases
- CREB transcription factor activity (cAMP/PKA pathway) [6]: significant activities
- ELK1/SRF transcription factor activity (MAPK/ERK pathway) [6]: significant activities
- STAT3 transcription factor activity (IL-6 signaling pathway) [6]: significant activities

Source: patent publication US10786475B2, “Method for preventing, treating, or improving fatty liver by administering effective amounts of azelaic acid to a subject” (Korea University Research and Business Foundation, priority 2018, dated 2020)
